# Measurements reported in patent US4493828A, “Use of thyrotropin releasing hormone and related peptides as poultry growth promotants” (Merck & Co., Inc., priority 1982, dated 1985).
# Experiments:
# [1] = test system: 4-week-old Hubbard x Hubbard cockerels; test: Example 1: effect of TRH on growth in 4-week-old male chicks (17 days); type: in vivo, chicken; conditions: for body weight gain as compared with control (in words): P 0.01
# Description: Four-week-old Hubbard x Hubbard cockerels were used in this experiment, and average initial weights were 841.75 g. Synthetic TRH (Beckman Co., Calif.) was dissolved in saline and given daily by intravenous injection via the brachial vein at 0.1 μg/bird, 1.0 μg/bird, and 10.0 μg/bird. Birds were weighed and feed consumption was measured at 2 times a week for 21/2 weeks. Data were analyzed by least squares analyses of variance, using initial weight as a covariant.
# [2] = test system: 4-week-old Hubbard×Hubbard cockerels; test: Example 2: effect of TRH on growth in 4-week-old male chicks (25 days); type: in vivo, chicken
# Description: Four-week-old Hubbard×Hubbard cockerels were used in this experiment, and average weight was 831.38 g. Synthetic TRH (Beckman Co., CA) was dissolved in saline and given daily by intravenous injection via the brachial vein at 0.1 μg/bird, 1.0 μg/bird, and 10 μg/ bird. Birds were weighed twice a week for 4 weeks. Data were analyzed by least squares of variance, using initial weight as a covariant.
# [3] = 0.1 μg/bird daily intravenous, day 3 after start of treatment
# [4] = 0.1 μg/bird daily intravenous, day 7 after start of treatment
# [5] = 0.1 μg/bird daily intravenous, day 10 after start of treatment
# [6] = 0.1 μg/bird daily intravenous, day 14 after start of treatment
# [7] = 0.1 μg/bird daily intravenous, day 17 after start of treatment
# [8] = 1.0 μg/bird daily intravenous, day 3 after start of treatment
# [9] = 1.0 μg/bird daily intravenous, day 7 after start of treatment
# [10] = 1.0 μg/bird daily intravenous, day 10 after start of treatment
# [11] = 1.0 μg/bird daily intravenous, day 14 after start of treatment
# [12] = 1.0 μg/bird daily intravenous, day 14 after start of treatment, P < 0.01
# [13] = 1.0 μg/bird daily intravenous, day 17 after start of treatment, P < 0.01
# [14] = 1.0 μg/bird/day, 14 and 17 days after the start of treatment
# [15] = 10 μg/bird daily intravenous, day 3 after start of treatment
# [16] = 10 μg/bird daily intravenous, day 7 after start of treatment
# [17] = 10 μg/bird daily intravenous, day 10 after start of treatment
# [18] = 10 μg/bird daily intravenous, day 14 after start of treatment
# [19] = 10 μg/bird daily intravenous, day 14 after start of treatment, P < 0.01
# [20] = 10 μg/bird daily intravenous, day 17 after start of treatment, P < 0.01
# [21] = 10 μg/bird/day, 14 and 17 days after the start of treatment
# [22] = 1.0 μg/bird/day, 22 (p 0.05) and 25 (p 0.025) days after the start of treatment
# [23] = TRH (high) 10 μg/bird daily intravenous, day 4 after start of treatment
# [24] = TRH (high) 10 μg/bird daily intravenous, day 8 after start of treatment
compound,measurement,setting,value
"NC(=O)[C@@H]1CCCN1C(=O)[C@H](Cc1c[nH]cn1)NC(=O)[C@@H]1CCC(=O)N1 [TRH, Glp--His--Pro--NH2]",body weight gain,[1]; [3],171.7 ± 9.8 g
same,"body weight gain, percent increased as compared with control",[1]; [3],+0.6%
same,"body weight, least squares mean ± SEM corrected by initial weight",[1]; [3],1009.3 ± 9.7 g
same,"body weight, percent increased as compared with control",[1]; [3],+0.1%
same,body weight gain,[1]; [4],393.1 ± 14.7 g
same,"body weight gain, percent increased as compared with control",[1]; [4],+5.0%
same,"body weight, least squares mean ± SEM corrected by initial weight",[1]; [4],1230.6 ± 14.7 g
same,"body weight, percent increased as compared with control",[1]; [4],+1.5%
same,body weight gain,[1]; [5],569.4 ± 19.7 g
same,"body weight gain, percent increased as compared with control",[1]; [5],+5.5%
same,"body weight, least squares mean ± SEM corrected by initial weight",[1]; [5],1406.9 ± 19.7 g
same,"body weight, percent increased as compared with control",[1]; [5],+2.2%
same,body weight gain,[1]; [6],824.3 ± 24.9 g
same,"body weight gain, percent increased as compared with control",[1]; [6],+8.9%
same,"body weight, least squares mean ± SEM corrected by initial weight",[1]; [6],1662.1 ± 24.8 g
same,"body weight, percent increased as compared with control",[1]; [6],+4.0%
same,body weight gain,[1]; [7],999.5 ± 27.8 g
same,"body weight gain, percent increased as compared with control",[1]; [7],+7.5%
same,"body weight, least squares mean ± SEM corrected by initial weight",[1]; [7],1837.1 ± 27.8 g
same,"body weight, percent increased as compared with control",[1]; [7],+3.9%
same,body weight compared with birds receiving saline injections (in words),[1]; 0.1 μg/bird/day,slight increase in the body weight
same,body weight gain,[1]; [8],174.2 ± 9.7 g
same,"body weight gain, percent increased as compared with control",[1]; [8],+2.1%
same,"body weight, least squares mean ± SEM corrected by initial weight",[1]; [8],1011.8 ± 9.7 g
same,"body weight, percent increased as compared with control",[1]; [8],+0.3%
same,body weight gain,[1]; [9],409.2 ± 14.6 g
same,"body weight gain, percent increased as compared with control",[1]; [9],+9.3%
same,"body weight, least squares mean ± SEM corrected by initial weight",[1]; [9],1246.7 ± 14.6 g
same,"body weight, percent increased as compared with control",[1]; [9],+2.9%
same,body weight gain,[1]; [10],582.9 ± 19.6 g
same,"body weight gain, percent increased as compared with control",[1]; [10],+8.0%
same,"body weight, least squares mean ± SEM corrected by initial weight",[1]; [10],1420.5 ± 19.6 g
same,"body weight, percent increased as compared with control",[1]; [10],+3.2%
same,"body weight gain, percent increased as compared with control",[1]; [11],+13.1%
same,"body weight, percent increased as compared with control",[1]; [11],+6.0%
same,body weight gain,[1]; [12],856.2 ± 24.8 g
same,"body weight, least squares mean ± SEM corrected by initial weight",[1]; [12],1693.7 ± 24.6 g
same,"body weight, percent increased as compared with control","[1]; 1.0 μg/bird daily intravenous, day 17 after start of treatment",+6.3%
same,"body weight gain, percent increased as compared with control","[1]; 1.0 μg/bird daily intravenous, day 17 after start of treatment (end of experiment)",12.0%
same,body weight gain,[1]; [13],1041.2 ± 27.6 g
same,"body weight, least squares mean ± SEM corrected by initial weight",[1]; [13],1878.8 ± 27.6 g
same,body weight compared with birds receiving saline injections (in words),[1]; [14],increased body weight significantly
same,body weight gain as compared with control (in words),[1]; [14],significant increase
same,body weight gain,[1]; [15],181.6 ± 8.7 g
same,"body weight gain, percent increased as compared with control",[1]; [15],+6.4%
same,"body weight, least squares mean ± SEM corrected by initial weight",[1]; [15],1019.2 ± 8.7 g
same,"body weight, percent increased as compared with control",[1]; [15],+1.1%
same,body weight gain,[1]; [16],399.3 ± 13.1 g
same,"body weight gain, percent increased as compared with control",[1]; [16],+6.7%
same,"body weight, least squares mean ± SEM corrected by initial weight",[1]; [16],1236.9 ± 13.1 g
same,"body weight, percent increased as compared with control",[1]; [16],+2.1%
same,body weight gain,[1]; [17],584.0 ± 7.6 g
same,"body weight gain, percent increased as compared with control",[1]; [17],+8.2%
same,"body weight, least squares mean ± SEM corrected by initial weight",[1]; [17],1421.6 ± 17.6 g
same,"body weight, percent increased as compared with control",[1]; [17],+3.2%
same,"body weight gain, percent increased as compared with control",[1]; [18],+12.7%
same,"body weight, percent increased as compared with control",[1]; [18],+5.8%
same,body weight gain,[1]; [19],853.3 ± 22.2 g
same,"body weight, least squares mean ± SEM corrected by initial weight",[1]; [19],1690.8 ± 22.0 g
same,"body weight, percent increased as compared with control","[1]; 10 μg/bird daily intravenous, day 17 after start of treatment",+6.5%
same,body weight gain,[1]; [20],1044.9 ± 24.7 g
same,"body weight, least squares mean ± SEM corrected by initial weight",[1]; [20],1882.5 ± 24.7 g
same,body weight compared with birds receiving saline injections (in words),[1]; [21],increased body weight significantly
same,body weight gain as compared with control (in words),[1]; [21],significant increase
same,body weight compared with birds receiving saline injections (in words),[2]; 0.1 μg/bird/day,slight increase in body weight
same,body weight compared with birds receiving saline injections (in words),[2]; [22],significant increase in body weight
same,body weight gain as compared with control birds (in words),[2]; [22],significant increase
same,body weight compared with birds receiving saline injections (in words),[2]; 10 μg/bird/day,slight increase in body weight
same,body weight gain as compared with control birds (in words),"[2]; 10 μg/bird/day, throughout the whole experiment",slight increase in body weight gain
same,body weight gain,[2]; [23],156.3 ± 8.4 g
same,"body weight gain, percent increase as compared with control",[2]; [23],4.6%
same,"body weight, least squares mean ± standard error of the mean corrected by initial weight",[2]; [23],997.7 ± 8.3 g
same,"body weight, percent increased as compared with control",[2]; [23],0.7%
same,body weight gain,[2]; [24],377.9 ± 15.1 g
same,"body weight gain, percent increase as compared with control",[2]; [24],0%
same,"body weight, least squares mean ± standard error of the mean corrected by initial weight",[2]; [24],1219.1 ± 15.0 g
